Assay results taken from ChEMBL document CHEMBL1201862, “PubChem BioAssay data set” (2004).
Active and inactive are the calls of the source.

Experiments:
Beta-galactosidase = Beta-galactosidase (Escherichia coli, UniProt Q8VNN2); assay: detection-enzyme interference by beta-gal modulators – biochemical, E. coli enzyme, set 3, artefact control for CCR6 antagonist project, dose response (AID 504712); type: functional
Nonstructural protein 1 = Nonstructural protein 1 (Influenza A virus, UniProt Q194T2); type: functional, Influenza A virus (A/California/07/2009(H1N1))
Sequence of Nonstructural protein 1 (Q194T2 whole entry): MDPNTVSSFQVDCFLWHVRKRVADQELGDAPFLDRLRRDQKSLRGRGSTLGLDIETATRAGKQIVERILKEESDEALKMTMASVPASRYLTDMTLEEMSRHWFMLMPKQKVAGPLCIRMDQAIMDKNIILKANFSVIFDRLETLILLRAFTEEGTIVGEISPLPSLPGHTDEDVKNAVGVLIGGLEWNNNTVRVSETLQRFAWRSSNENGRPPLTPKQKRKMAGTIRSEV

Hexokinase HKDC1 = biological target: T1, Hexokinase HKDC1 (Homo sapiens, UniProt Q2TB90); assay: inhibition of HKDC1 glucose phosphorylation – biochemical, W721R variant, dose response (AID 504729); type: functional
T1 sequence (Q2TB90 whole entry): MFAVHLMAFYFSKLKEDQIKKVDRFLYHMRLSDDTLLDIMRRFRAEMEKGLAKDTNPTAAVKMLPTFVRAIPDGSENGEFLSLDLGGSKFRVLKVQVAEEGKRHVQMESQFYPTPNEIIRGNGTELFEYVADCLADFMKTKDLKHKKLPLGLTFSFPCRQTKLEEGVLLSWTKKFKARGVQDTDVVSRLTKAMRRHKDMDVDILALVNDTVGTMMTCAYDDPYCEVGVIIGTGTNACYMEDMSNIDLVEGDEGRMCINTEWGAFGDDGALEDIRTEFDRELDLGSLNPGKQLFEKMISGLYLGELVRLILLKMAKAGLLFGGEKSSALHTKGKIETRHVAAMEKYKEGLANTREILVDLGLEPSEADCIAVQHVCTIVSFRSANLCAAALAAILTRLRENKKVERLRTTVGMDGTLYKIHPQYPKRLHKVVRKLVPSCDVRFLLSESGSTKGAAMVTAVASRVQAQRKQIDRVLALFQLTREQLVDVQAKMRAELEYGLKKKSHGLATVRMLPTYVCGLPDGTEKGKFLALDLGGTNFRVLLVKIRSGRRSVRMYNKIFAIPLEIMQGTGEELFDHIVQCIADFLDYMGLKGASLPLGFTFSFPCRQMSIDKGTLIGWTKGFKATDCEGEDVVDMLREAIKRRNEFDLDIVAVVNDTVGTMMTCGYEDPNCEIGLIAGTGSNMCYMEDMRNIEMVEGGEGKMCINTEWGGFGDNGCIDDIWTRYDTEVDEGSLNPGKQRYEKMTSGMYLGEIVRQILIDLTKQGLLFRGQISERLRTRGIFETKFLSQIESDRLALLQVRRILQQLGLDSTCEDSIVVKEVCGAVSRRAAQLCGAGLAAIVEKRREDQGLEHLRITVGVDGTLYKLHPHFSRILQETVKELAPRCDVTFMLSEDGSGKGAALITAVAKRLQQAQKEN

[1] = biological target: Potassium voltage-gated channel subfamily KQT member 2 (Rattus norvegicus, UniProt O88943); assay: potentiation of rat KCNQ2 current – cell-based, retigabine-insensitive compounds, dose response (AID 2654); type: functional
Sequence of Potassium voltage-gated channel subfamily KQT member 2 (O88943 whole entry): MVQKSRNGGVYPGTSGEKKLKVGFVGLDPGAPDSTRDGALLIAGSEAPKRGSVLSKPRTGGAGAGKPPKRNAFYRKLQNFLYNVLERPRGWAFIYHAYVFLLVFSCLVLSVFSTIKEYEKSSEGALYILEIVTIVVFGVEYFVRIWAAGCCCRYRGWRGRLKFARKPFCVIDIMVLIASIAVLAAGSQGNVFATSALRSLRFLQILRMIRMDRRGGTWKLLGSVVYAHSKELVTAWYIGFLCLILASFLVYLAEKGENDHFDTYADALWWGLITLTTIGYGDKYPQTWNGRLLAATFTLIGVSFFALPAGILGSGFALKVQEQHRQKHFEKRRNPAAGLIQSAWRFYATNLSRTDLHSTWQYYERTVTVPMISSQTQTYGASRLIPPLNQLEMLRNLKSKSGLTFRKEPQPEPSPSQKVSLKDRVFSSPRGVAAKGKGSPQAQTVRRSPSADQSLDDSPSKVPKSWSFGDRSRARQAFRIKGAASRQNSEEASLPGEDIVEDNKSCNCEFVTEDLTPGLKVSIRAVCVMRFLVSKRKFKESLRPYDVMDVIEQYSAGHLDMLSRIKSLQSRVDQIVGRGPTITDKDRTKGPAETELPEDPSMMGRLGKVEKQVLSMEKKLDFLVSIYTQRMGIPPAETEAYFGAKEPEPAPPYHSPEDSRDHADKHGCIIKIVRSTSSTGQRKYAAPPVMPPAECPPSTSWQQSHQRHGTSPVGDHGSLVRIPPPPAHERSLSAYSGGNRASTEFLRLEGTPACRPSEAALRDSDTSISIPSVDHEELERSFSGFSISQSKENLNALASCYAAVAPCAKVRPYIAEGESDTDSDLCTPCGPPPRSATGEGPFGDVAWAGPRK

[2] = biological target: T2, Alkaline phosphatase, tissue-nonspecific isozyme (Homo sapiens, UniProt P05186); assay: potency against alkaline phosphatase TNAP – biochemical, luminescent, dose response, SAR follow-up (AID 1056)
T2 sequence (P05186 whole entry): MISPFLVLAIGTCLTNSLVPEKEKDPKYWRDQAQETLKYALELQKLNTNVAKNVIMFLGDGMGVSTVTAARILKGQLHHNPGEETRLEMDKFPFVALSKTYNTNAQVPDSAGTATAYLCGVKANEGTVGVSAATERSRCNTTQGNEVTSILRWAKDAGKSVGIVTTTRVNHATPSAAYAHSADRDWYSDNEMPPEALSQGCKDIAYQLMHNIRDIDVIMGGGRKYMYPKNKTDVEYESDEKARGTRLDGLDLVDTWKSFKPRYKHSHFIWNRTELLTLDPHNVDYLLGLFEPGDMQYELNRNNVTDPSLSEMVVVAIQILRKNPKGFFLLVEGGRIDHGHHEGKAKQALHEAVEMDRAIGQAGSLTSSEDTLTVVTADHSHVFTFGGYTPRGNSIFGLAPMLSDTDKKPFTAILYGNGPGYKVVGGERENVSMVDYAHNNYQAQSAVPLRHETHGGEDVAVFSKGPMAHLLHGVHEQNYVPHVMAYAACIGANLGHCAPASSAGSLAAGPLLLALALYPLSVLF

[3] = biological target: T3, Rac GTPase-activating protein 1 (Homo sapiens, UniProt Q9H0H5); assay: blockers of MgcRacGAP-driven Rac1 GTP hydrolysis – biochemical, ADP Hunter fluorescence, primary and confirmatory, confirmation (AID 624330); type: functional
T3 sequence (Q9H0H5 whole entry): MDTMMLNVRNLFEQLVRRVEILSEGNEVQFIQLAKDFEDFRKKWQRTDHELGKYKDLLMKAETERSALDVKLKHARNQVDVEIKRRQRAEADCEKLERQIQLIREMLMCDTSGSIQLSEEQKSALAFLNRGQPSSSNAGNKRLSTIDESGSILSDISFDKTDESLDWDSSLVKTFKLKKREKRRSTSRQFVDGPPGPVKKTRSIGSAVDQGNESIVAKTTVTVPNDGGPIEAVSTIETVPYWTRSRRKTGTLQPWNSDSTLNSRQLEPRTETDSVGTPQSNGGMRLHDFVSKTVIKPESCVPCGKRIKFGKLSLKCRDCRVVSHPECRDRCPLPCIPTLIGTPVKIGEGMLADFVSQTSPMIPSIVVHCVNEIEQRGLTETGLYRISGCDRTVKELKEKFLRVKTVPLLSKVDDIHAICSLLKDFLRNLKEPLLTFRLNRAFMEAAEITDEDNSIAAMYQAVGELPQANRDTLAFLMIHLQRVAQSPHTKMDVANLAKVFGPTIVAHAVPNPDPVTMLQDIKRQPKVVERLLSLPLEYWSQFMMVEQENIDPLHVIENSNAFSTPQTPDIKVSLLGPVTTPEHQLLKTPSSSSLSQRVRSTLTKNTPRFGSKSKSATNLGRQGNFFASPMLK

Phosphomannomutase 2 = biological target: T4, Phosphomannomutase 2 (Homo sapiens, UniProt O15305); assay: Counter screen SAR assay for PMM2 inhibitors via a fluorescence intensity assay. [Related pubchem assays (depositor defined):AID1545, AID1574]
T4 sequence (O15305 whole entry): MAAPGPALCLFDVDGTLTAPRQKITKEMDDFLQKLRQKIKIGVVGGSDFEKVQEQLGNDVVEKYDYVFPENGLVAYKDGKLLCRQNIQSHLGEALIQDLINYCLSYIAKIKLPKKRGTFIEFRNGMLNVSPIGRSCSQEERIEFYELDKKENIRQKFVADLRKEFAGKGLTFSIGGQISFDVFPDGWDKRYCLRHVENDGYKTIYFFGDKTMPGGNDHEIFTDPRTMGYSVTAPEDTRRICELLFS

[4] = viability loss in HeLa cells – cytotoxicity control for MgcRacGAP inhibitor project, dose response (AID 624300); type: functional
[5] = biological target: Phosphoethanolamine/phosphocholine phosphatase (Homo sapiens, UniProt Q8TCT1); assay: SAR assay for compounds that inhibit PHOSPHO1. [Related pubchem assays (depositor defined):AID1545, AID1565, AID1574]
Sequence of Phosphoethanolamine/phosphocholine phosphatase (Q8TCT1 whole entry): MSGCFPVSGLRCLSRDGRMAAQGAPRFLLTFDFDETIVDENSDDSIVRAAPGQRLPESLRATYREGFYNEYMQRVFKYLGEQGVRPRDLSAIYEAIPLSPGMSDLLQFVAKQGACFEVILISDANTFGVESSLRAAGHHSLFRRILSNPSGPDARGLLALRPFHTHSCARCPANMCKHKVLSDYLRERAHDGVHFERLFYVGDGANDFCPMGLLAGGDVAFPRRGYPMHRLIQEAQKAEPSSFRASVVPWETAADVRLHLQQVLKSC

[6] = biological target: T5, Mannose-6-phosphate isomerase (Homo sapiens, UniProt P34949); assay: Confirmation of compounds inhibiting phosphomannose isomerase (PMI) via a fluorescence intensity assay using a high concentration of mannose 6-phosphate. [Related pubchem assays (depositor defined):AID1209, AID1220, AID1545, AID1553, AID1620]
T5 sequence (P34949 whole entry): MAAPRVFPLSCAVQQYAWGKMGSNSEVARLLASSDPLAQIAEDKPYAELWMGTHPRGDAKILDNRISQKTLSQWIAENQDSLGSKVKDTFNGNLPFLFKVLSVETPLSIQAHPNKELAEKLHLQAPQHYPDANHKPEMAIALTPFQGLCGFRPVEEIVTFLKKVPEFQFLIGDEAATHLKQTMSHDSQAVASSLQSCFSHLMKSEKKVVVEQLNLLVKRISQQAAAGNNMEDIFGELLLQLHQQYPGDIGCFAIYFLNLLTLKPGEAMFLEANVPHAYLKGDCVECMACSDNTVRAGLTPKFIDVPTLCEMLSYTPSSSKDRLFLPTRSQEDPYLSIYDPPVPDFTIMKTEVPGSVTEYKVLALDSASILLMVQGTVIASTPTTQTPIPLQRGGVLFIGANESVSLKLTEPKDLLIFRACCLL

Sequence of Beta-galactosidase (Q8VNN2 whole entry): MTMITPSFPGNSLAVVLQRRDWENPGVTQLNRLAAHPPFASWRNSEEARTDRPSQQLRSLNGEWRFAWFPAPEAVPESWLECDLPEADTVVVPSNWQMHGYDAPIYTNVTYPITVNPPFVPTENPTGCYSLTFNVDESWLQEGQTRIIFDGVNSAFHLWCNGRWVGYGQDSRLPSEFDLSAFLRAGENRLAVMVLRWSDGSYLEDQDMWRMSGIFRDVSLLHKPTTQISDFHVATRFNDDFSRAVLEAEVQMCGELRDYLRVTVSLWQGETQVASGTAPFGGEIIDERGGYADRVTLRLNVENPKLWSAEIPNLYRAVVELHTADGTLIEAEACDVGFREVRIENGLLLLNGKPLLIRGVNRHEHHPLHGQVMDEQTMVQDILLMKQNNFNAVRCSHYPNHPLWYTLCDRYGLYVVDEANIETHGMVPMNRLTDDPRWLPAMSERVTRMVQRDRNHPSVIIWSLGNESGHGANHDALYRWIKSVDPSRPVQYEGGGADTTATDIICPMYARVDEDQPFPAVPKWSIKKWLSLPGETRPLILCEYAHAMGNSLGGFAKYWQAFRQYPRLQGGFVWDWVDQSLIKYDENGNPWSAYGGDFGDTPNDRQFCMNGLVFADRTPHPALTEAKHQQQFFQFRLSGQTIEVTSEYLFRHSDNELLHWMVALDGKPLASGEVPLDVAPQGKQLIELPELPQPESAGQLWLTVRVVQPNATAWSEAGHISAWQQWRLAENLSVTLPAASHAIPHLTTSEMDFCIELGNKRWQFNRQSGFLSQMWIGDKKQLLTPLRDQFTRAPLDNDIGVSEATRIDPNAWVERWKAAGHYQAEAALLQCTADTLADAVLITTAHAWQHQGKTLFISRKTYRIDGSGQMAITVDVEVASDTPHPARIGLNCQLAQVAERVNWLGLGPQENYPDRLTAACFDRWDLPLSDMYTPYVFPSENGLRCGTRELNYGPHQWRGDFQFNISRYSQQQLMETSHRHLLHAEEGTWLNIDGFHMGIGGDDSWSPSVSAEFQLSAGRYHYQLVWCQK

CCOC(=O)C1=C(Cc2ccc(OC)cc2)C(=O)c2ccccc2C1=O
IC50 (Beta-galactosidase): > 66.6 µM (inactive) | IC50 (Nonstructural protein 1): 42.9 µM (active) | IC50 (Hexokinase HKDC1): 7.57 µM (active)

Cc1cccc(NC(=O)Nc2cccnc2)c1
EC50 [1]: 16.8 µM (active)

COC(=O)c1cccc(-n2sc3ccccc3c2=O)c1
IC50 [2]: > 100 µM (inactive) | IC50 [3]: 36.9 µM (active) | IC50 (Phosphomannomutase 2): 15.4 µM (active) | CC50 [4]: 100 µM (active) | IC50 [5]: 0.824 µM (active) | IC50 [6]: 14 µM (active)
